Source: the supplement of paper PMC10307832

What was measured:
Assay in all cases: relative viability (nuclei count vs DMSO), 5 days (fraction); higher = more cells survive
[1] = tested on: NCI-H3122
Summary of the method: (§1)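 One day after seeding in 1536-well plates, lung cancer cell lines were dosed by pin tool. Dosing was either single-drug or a fixed anchor-drug dose plus five library-drug doses (not always all listed) in √10 steps. After 5 days, nuclei were stained in one fix-and-stain step and counted on 4× images, and relative viability is the nuclei count of treated wells over that of vehicle wells, given as the median of duplicate plates.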

[2] = tested on: HCC-366
Summary of the method: as §1

[3] = tested on: NCI-H661
Summary of the method: as §1

[4] = tested on: NCI-H727
Summary of the method: as §1

[5] = tested on: COR-L 105
Summary of the method: as §1

[6] = tested on: PC-14
Summary of the method: as §1

[7] = tested on: NCI-H441
Summary of the method: as §1

[8] = tested on: NCI-H1437
Summary of the method: as §1

[9] = tested on: HARA
Summary of the method: as §1

[10] = tested on: NCI-H460
Summary of the method: as §1

[11] = tested on: EKVX
Summary of the method: as §1

[12] = tested on: NCI-H1666
Summary of the method: as §1

[13] = tested on: CAL-12T
Summary of the method: as §1

[14] = tested on: 201T
Summary of the method: as §1

[15] = tested on: ABC-1
Summary of the method: as §1

[16] = tested on: NCI-H1650
Summary of the method: as §1

[17] = tested on: LOU-NH91
Summary of the method: as §1

[18] = tested on: NCI-H2009
Summary of the method: as §1

[19] = tested on: BEN
Summary of the method: as §1

Question: Which relative viability ([1]; first compound 0.0002 µM) does the source give for `CC(=O)O[C@@]12CO[C@@H]1C[C@H](O)[C@@]1(C)C(=O)[C@H](O)C3=C(C)[C@@H](OC(=O)[C@H](O)[C@@H](NC(=O)OC(C)(C)C)c4ccccc4)C[C@@](O)([C@@H](OC(=O)c4ccccc4)[C@H]21)C3(C)C` [Docetaxel] + CC(C)C[C@H](NC(=O)[C@H](Cc1ccccc1)NC(=O)c1cnccn1)B(O)O [Bortezomib] (partner 0.002 µM) here?
Answer: 1.04

Question: What about the relative viability ([1]; first compound 0.000632 µM) of the same compound?
Answer: 0.907

Question: And the relative viability ([1]; first compound 0.002 µM)?
Answer: 0.864

Question: And the relative viability ([1]; first compound 0.006325 µM)?
Answer: 0.368

Question: And the relative viability ([1]; first compound 0.02 µM)?
Answer: 0.227

Question: And the relative viability ([2]; first compound 0.0002 µM)?
Answer: 1.07

Question: And the relative viability ([2]; first compound 0.000632 µM)?
Answer: 0.267

Question: And the relative viability ([2]; first compound 0.002 µM)?
Answer: 0.144

Question: And the relative viability ([2]; first compound 0.006325 µM)?
Answer: 0.0171

Question: What about the relative viability ([3]; first compound 0.0002 µM) of the same compound?
Answer: 0.702

Question: And the relative viability ([3]; first compound 0.000632 µM)?
Answer: 0.784

Question: What about the relative viability ([3]; first compound 0.002 µM) of the same compound?
Answer: 0.68

Question: What about the relative viability ([3]; first compound 0.006325 µM) of the same compound?
Answer: 0.634

Question: What about the relative viability ([3]; first compound 0.02 µM) of the same compound?
Answer: 0.224

Question: And the relative viability ([4]; first compound 0.0002 µM)?
Answer: 0.795

Question: And the relative viability ([4]; first compound 0.000632 µM)?
Answer: 0.855

Question: What about the relative viability ([4]; first compound 0.002 µM) of the same compound?
Answer: 0.474

Question: What about the relative viability ([4]; first compound 0.006325 µM) of the same compound?
Answer: 0.473

Question: What about the relative viability ([4]; first compound 0.02 µM) of the same compound?
Answer: 0.483

Question: What about the relative viability ([5]; first compound 0.0002 µM) of the same compound?
Answer: 0.734

Question: And the relative viability ([5]; first compound 0.000632 µM)?
Answer: 0.595

Question: What about the relative viability ([5]; first compound 0.002 µM) of the same compound?
Answer: 0.423

Question: What about the relative viability ([5]; first compound 0.006325 µM) of the same compound?
Answer: 0.304

Question: What about the relative viability ([5]; first compound 0.02 µM) of the same compound?
Answer: 0.229

Question: And the relative viability ([6]; first compound 0.0002 µM)?
Answer: 0.826

Question: What about the relative viability ([6]; first compound 0.000632 µM) of the same compound?
Answer: 0.803

Question: What about the relative viability ([6]; first compound 0.002 µM) of the same compound?
Answer: 0.132

Question: And the relative viability ([6]; first compound 0.006325 µM)?
Answer: 0.103

Question: And the relative viability ([6]; first compound 0.02 µM)?
Answer: 0.0579

Question: And the relative viability ([7]; first compound 0.0002 µM)?
Answer: 0.449

Question: And the relative viability ([7]; first compound 0.000632 µM)?
Answer: 0.276

Question: What about the relative viability ([7]; first compound 0.002 µM) of the same compound?
Answer: 0.208

Question: And the relative viability ([7]; first compound 0.006325 µM)?
Answer: 0.188

Question: What about the relative viability ([7]; first compound 0.02 µM) of the same compound?
Answer: 0.179

Question: And the relative viability ([8]; first compound 0.0002 µM)?
Answer: 0.472

Question: What about the relative viability ([8]; first compound 0.000632 µM) of the same compound?
Answer: 0.322

Question: What about the relative viability ([8]; first compound 0.002 µM) of the same compound?
Answer: 0.215

Question: What about the relative viability ([8]; first compound 0.006325 µM) of the same compound?
Answer: 0.145

Question: And the relative viability ([8]; first compound 0.02 µM)?
Answer: 0.104

Question: And the relative viability ([9]; first compound 0.0002 µM)?
Answer: 1.04

Question: What about the relative viability ([9]; first compound 0.000632 µM) of the same compound?
Answer: 0.372

Question: What about the relative viability ([9]; first compound 0.002 µM) of the same compound?
Answer: 0.376

Question: What about the relative viability ([9]; first compound 0.006325 µM) of the same compound?
Answer: 0.118

Question: And the relative viability ([9]; first compound 0.02 µM)?
Answer: 0.0895

Question: And the relative viability ([10]; first compound 0.0002 µM)?
Answer: 0.959

Question: What about the relative viability ([10]; first compound 0.000632 µM) of the same compound?
Answer: 0.735

Question: And the relative viability ([10]; first compound 0.002 µM)?
Answer: 0.0916

Question: And the relative viability ([10]; first compound 0.006325 µM)?
Answer: 0.0162

Question: And the relative viability ([10]; first compound 0.02 µM)?
Answer: 0.0121

Question: What about the relative viability ([11]; first compound 0.0002 µM) of the same compound?
Answer: 1.05

Question: What about the relative viability ([11]; first compound 0.000632 µM) of the same compound?
Answer: 0.718

Question: And the relative viability ([11]; first compound 0.002 µM)?
Answer: 0.429

Question: And the relative viability ([11]; first compound 0.006325 µM)?
Answer: 0.269

Question: And the relative viability ([11]; first compound 0.02 µM)?
Answer: 0.152

Question: And the relative viability ([12]; first compound 0.0002 µM)?
Answer: 0.582

Question: And the relative viability ([12]; first compound 0.000632 µM)?
Answer: 0.452

Question: And the relative viability ([12]; first compound 0.002 µM)?
Answer: 0.378

Question: What about the relative viability ([12]; first compound 0.006325 µM) of the same compound?
Answer: 0.249

Question: What about the relative viability ([12]; first compound 0.02 µM) of the same compound?
Answer: 0.205

Question: And the relative viability ([13]; first compound 0.0002 µM)?
Answer: 0.822

Question: What about the relative viability ([13]; first compound 0.000632 µM) of the same compound?
Answer: 0.404

Question: And the relative viability ([13]; first compound 0.002 µM)?
Answer: 0.348

Question: And the relative viability ([13]; first compound 0.006325 µM)?
Answer: 0.271

Question: What about the relative viability ([13]; first compound 0.02 µM) of the same compound?
Answer: 0.148

Question: And the relative viability ([14]; first compound 0.0002 µM)?
Answer: 1.07

Question: What about the relative viability ([14]; first compound 0.000632 µM) of the same compound?
Answer: 1.1

Question: What about the relative viability ([14]; first compound 0.002 µM) of the same compound?
Answer: 1.03

Question: What about the relative viability ([14]; first compound 0.006325 µM) of the same compound?
Answer: 0.624

Question: And the relative viability ([14]; first compound 0.02 µM)?
Answer: 0.425

Question: What about the relative viability ([15]; first compound 0.0002 µM) of the same compound?
Answer: 0.298

Question: What about the relative viability ([15]; first compound 0.000632 µM) of the same compound?
Answer: 0.334

Question: And the relative viability ([15]; first compound 0.002 µM)?
Answer: 0.306

Question: And the relative viability ([15]; first compound 0.006325 µM)?
Answer: 0.247

Question: What about the relative viability ([15]; first compound 0.02 µM) of the same compound?
Answer: 0.278

Question: And the relative viability ([16]; first compound 0.0002 µM)?
Answer: 0.2

Question: What about the relative viability ([16]; first compound 0.000632 µM) of the same compound?
Answer: 0.196

Question: What about the relative viability ([16]; first compound 0.002 µM) of the same compound?
Answer: 0.204

Question: And the relative viability ([16]; first compound 0.006325 µM)?
Answer: 0.181

Question: And the relative viability ([16]; first compound 0.02 µM)?
Answer: 0.201

Question: What about the relative viability ([17]; first compound 0.0002 µM) of the same compound?
Answer: 0.483

Question: And the relative viability ([17]; first compound 0.000632 µM)?
Answer: 0.46

Question: And the relative viability ([17]; first compound 0.002 µM)?
Answer: 0.4

Question: And the relative viability ([17]; first compound 0.006325 µM)?
Answer: 0.337

Question: What about the relative viability ([17]; first compound 0.02 µM) of the same compound?
Answer: 0.345

Question: What about the relative viability ([18]; first compound 0.0002 µM) of the same compound?
Answer: 0.99

Question: And the relative viability ([18]; first compound 0.000632 µM)?
Answer: 1.01

Question: And the relative viability ([18]; first compound 0.002 µM)?
Answer: 0.914

Question: And the relative viability ([18]; first compound 0.006325 µM)?
Answer: 0.263

Question: What about the relative viability ([18]; first compound 0.02 µM) of the same compound?
Answer: 0.178

Question: What about the relative viability ([19]; first compound 0.0002 µM) of the same compound?
Answer: 0.612

Question: And the relative viability ([19]; first compound 0.000632 µM)?
Answer: 0.644

Question: What about the relative viability ([19]; first compound 0.002 µM) of the same compound?
Answer: 0.341

Question: And the relative viability ([19]; first compound 0.006325 µM)?
Answer: 0.263

Question: What about the relative viability ([19]; first compound 0.02 µM) of the same compound?
Answer: 0.164
